Test [1] deals with T1, OGR1 (Homo sapiens, UniProt Q15743).
T1 construct: His; expressed in transfected cells
Kind of test: Inositol phosphate (IP) formation assay, cells expressing OGR1. The conditions noted are these: for Inhibition of OGR1-dependent IP formation: stimulated at pH 6.9, micromolar concentrations. The format is cell-based.
Target sequence in this assay (Q15743 whole entry): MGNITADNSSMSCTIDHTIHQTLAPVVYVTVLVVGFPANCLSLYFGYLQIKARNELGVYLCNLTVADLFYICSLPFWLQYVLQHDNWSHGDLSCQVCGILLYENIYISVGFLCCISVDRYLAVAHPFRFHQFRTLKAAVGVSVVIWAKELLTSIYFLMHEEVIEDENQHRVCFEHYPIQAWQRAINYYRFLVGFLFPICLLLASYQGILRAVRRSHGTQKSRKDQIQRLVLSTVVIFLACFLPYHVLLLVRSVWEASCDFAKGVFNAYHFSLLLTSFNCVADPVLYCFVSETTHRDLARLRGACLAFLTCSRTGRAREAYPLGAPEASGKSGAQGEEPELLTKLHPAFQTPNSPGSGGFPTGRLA

The subject of test [2] is MG63 human osteosarcoma cells. Kind of test: IP formation in MG63 human osteosarcoma cells (endogenous OGR1 mRNA). It counts as cell-based.
For test [3], the system named is thrombin-stimulated IP formation (endogenous receptors in CCL39 cells). Kind of test: Thrombin-stimulated IP formation in CCL39 cells. It counts as cell-based, hamster. The conditions noted are these: for Effect on thrombin-stimulated IP formation: control CCL39 cells.
In test [4] the target is T2, Human TDAG8 (Homo sapiens, UniProt Q8IYL9).
T2 construct: His; expressed in transfected cells; host or cells: CCL39 (cAMP formation); CCL39 CRE-luc (luciferase reporter)
T2 sequence (Q8IYL9 whole entry A43P/W80T/N97L/F130I/Q180E): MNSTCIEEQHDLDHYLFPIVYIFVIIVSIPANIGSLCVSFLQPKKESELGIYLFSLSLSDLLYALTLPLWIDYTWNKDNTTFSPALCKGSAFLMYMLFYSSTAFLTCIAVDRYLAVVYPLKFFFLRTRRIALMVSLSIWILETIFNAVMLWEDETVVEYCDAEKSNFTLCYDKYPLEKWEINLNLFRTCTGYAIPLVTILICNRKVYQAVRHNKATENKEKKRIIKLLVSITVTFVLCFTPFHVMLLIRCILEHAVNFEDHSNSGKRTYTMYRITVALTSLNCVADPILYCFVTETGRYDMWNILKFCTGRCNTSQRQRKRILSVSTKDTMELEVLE
Kind of test: cAMP formation assay, TDAG8. The format is cell-based. The conditions noted are these: TDAG8. Here is the method: (§1) Stable cell lines expressing TDAG8 are generated in either CCL39 cells or in CCL39 CRE-luc cells which stably express a cAMP-dependent luciferase reporter to detect changes in cAMP in response to ligand. Stable cell lines are generated In the above cell lines by transfecting the TDAG8 cDNA expression construct using Effectene (Qiagen, Basel, Switzerland) according to the manufacturers protocol. Transfected cells are selected in the presence of 400 μg/ml of G418. After 3 weeks of antibiotic selection, individual clones are picked and expanded for further analysis.

The target of test [5] is T3, Human GPR4 (Homo sapiens, UniProt P46093).
T3 construct: Human GPR4 is amplified from genomic DNA using primers GPR4F and GPR4R; expressed in transfected cells; host or cells: HEK293 (transient)
T3 sequence (P46093 whole entry F19H/E51Q/F93P/Q349E): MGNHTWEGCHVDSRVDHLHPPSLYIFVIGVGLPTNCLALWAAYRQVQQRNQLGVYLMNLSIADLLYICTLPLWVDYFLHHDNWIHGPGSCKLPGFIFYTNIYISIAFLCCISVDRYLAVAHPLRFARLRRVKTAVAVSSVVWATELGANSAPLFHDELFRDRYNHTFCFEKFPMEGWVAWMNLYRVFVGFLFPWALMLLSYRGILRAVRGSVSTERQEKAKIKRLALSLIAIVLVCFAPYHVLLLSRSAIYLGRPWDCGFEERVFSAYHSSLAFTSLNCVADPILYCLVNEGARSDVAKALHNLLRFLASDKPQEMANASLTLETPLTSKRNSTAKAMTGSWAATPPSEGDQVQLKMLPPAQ
Kind of test: cAMP formation assay, GPR4. It counts as cell-based. The conditions noted are these: GPR4. Here is the method: (§2) Human GPR4 is amplified from genomic DNA using primers GPR4F and GPR4R (5′ CACC ATGGGCAACCACACGTGGGAGGGCTGC 3′ and 5′ TCATTGTGCTGGCGGCAGCATCTTCAGCTGCA 3′ respectively). The PCR reaction mixture contains 0.2 mM dNTPs, 1×PCR buffer containing 1.5 mM MgCl2, 0.5 Units Taq DNA polymerase, 40 pmol each primer and sterile water in a total volume of 50 μl. The template for this reaction is human genomic DNA (Promega, Southampton, UK). PCR is performed using a Biometra T3 Thermocycler using the following cycling conditions: Denaturation at 95° C. for 2 min followed by 35 cycles of denaturation at 95° C. for 15s, annealing at 60° C. for 15 s, and extension at 72° C. for 1 min. A final extension at 72° C. is performed for 7 min. The 1.1 kb PCR product is purified and cloned pcDNA3.1 DN5-His-TOPO (Invitrogen, Paisley, UK).

For test [6], the target named is T4, Human GPR4 (Homo sapiens, UniProt P46093, E51Q/F19H/F93P/Q349E).
T4 construct: Human GPR4 is amplified from genomic DNA using primers GPR4F and GPR4R; expressed in transfected cells; host or cells: HEK293 (transient)
T4 sequence (P46093 whole entry F19H/E51Q/F93P/Q349E): as the sequence (P46093 whole entry F19H/E51Q/F93P/Q349E) above
Kind of test: cAMP formation assay, GPR4. It counts as cell-based. The method, then: as §2

For test [7], the system named is forskolin-stimulated adenylyl cyclase. Kind of test: Forskolin-stimulated adenylyl cyclase in other cell systems. The format is cell-based.
In test [8] the target is T1, OGR1. Kind of test: Cytoplasmic calcium transients (Fluo-3, fluorescence-imaging plate reader), CCL39 cells transfected with OGR1. It counts as cell-based. The conditions noted are these: shift of extracellular pH from pH 7.6; mean+/-sem, N=3. Here is the method:
Method: Cytoplasmic calcium transients are recorded using the calcium indicator Fluo-3 and a fluorescence-imaging plate reader (Molecular Devices/BucherBiotech, Basel, Switzerland).
CCL39 cells transfected with OGR1 are loaded with the acetoxymethylester of the dye (2 μg/ml) for 1 h at 37° C. in full medium containing 5 mM probenicide to inhibit the multidrug resistance transporter. […] To identify receptor antagonists, test compounds are added during the last 15 minutes of this incubation. After transfer to the reader a baseline is recorded (Fb), and cells are then stimulated by addition of an appropriate amount of stronger buffer (20 mM HEPES, pH 6), inducing acidification.
Alternatively, test compounds are added at this stage to identify agonistic molecules. The fluorescence readout F is normalised calculating F′=(F−Fb)/Fb.
Target sequence in this assay (Q15743 whole entry T18I/I19T): as the sequence (Q15743 whole entry) above, with T18I, I19T counted along it

For test [9], the target named is T5, Human TDAG8 (Homo sapiens, UniProt Q8IYL9, A43P/F130I/N97L/Q180E/W80T).
T5 construct: His; expressed in transfected cells; host or cells: CCL39 (cAMP formation); CCL39 CRE-luc (luciferase reporter)
T5 sequence (Q8IYL9 whole entry A43P/W80T/N97L/F130I/Q180E): as the sequence (Q8IYL9 whole entry A43P/W80T/N97L/F130I/Q180E) above
Kind of test: cAMP formation assay, TDAG8. The format is cell-based. The conditions noted are these: CCL39 cells stably expressing the receptor; mean+/-sem, N=6. The method, then:
as §1

Test [10] has as its target T5, Human TDAG8. Kind of test: cAMP luciferase reporter assay, TDAG8 in CCL39 CRE-luc cells. The conditions noted are these: CCL39 CRE-luc cells stably expressing the receptor; mean+/-sem, N=7. It counts as cell-based. Here is the method: as §1
Cells co-expressing TDAG8 and a cAMP luciferase reporter, as described in Example 8, are plated at 10-20,000 cells per well in white 96 well plates. The day before performing the assay the medium is changed for serum-free DMEM and the cells are incubated overnight at 37° C. in the presence of 5% CO2. […] 100 μl of the appropriate HBS buffer containing the to be tested compound (e.g. from any in-house or commercially available compound library) are then added on the cells. […] Agonists in the assay produce an increase in luminescence whereas antagonists produce a decrease in the luminescence. E.g. antagonists are characterised in the assay by a decrease in luminescence signal compared to the no compound control and e.g. in acidic pH buffer at pH 6.8 or pH 7.0 or at half-maximal activation of human TDAG8. […]

In the case of `[Cu+2]` [Cu^2+], the “Inhibition of OGR1-dependent IP formation” value at OGR1 [1] is “strongly Inhibit”. Further, the “Effect on pH-stimulated IP formation” value in test [2] (PTX pretreatment, or micromolar concentrations of copper ions) is “inhibited”. In test [3], the “Effect on thrombin-stimulated IP formation” value is listed as “without effect”.

Regarding `CCCCCCCCCCCCC/C=C/[C@@H](O)[C@@H](N)CO[C@@H]1O[C@H](CO)[C@H](O)[C@H](O)[C@H]1O` [Psychosine], the “Activation of cAMP formation on its own” value on Human TDAG8 [4] is listed as “does not activate cAMP formation on its own”.

In the case of `CCCCCCCCCCCCC/C=C/[C@@H](O)[C@@H](N)COP(=O)([O-])OCC[N+](C)(C)C` [SPC], at OGR1 [1] (CCL39 cells expressing OGR1), the “Effect on pH-dependent stimulation of IP formation” value is listed as “does not affect pH-dependent stimulation of IP formation” and the “Stimulation of OGR1 (IP formation)” value is reported as “does not stimulate the receptor”. Moreover, the “Activation of cAMP formation on its own” value on Human GPR4 [5] is reported as “does not activate cAMP formation on its own”. Moreover, the “Effect on pH-dependent stimulation of cAMP formation” value at Human GPR4 [6] (GPR4) was “does not modulate pH-dependent stimulation”. Moreover, the “Effect on forskolin-stimulated adenylyl cyclase” value in test [7] is reported as “inhibiting forskolin-stimulated adenylyl cyclase”.

Take `[Zn+2]` [Zn^2+]: at OGR1 [1], the “Inhibition of OGR1-dependent IP formation” value is listed as “strongly Inhibit”. In [3], the “Effect on thrombin-stimulated IP formation” value is given as “partial inhibition”.

Regarding `[H+]` [protons], the “Half-maximal activation of the receptor (IP formation)” value at OGR1 [1] (OGR1 expressed in CCL39 hamster fibroblasts, mean+/-sem, N=12, pH referenced to room temperature) is recorded as 7.48+/−0.04 pH. Further, the “Hill coefficient of activation” value on OGR1 [1] (OGR1 in CCL39 hamster fibroblasts, IP formation) is more than 2. In addition, the “Half-maximal activation of IP formation” value at OGR1 [1] (transiently transfected HEK cells, mean+/-sem, N=4) is 7.38+/−0.04 pH. Besides, the “Halfmaximal activation of IP formation” value in test [2] (mean+/-sem, N=5) was 7.46+/−0.01 pH. Also, at OGR1 [8], the “Half-maximal activation (intracellular calcium response)” value is given as 7.20+/−0.04 pH. The “Half-maximal activation of cAMP formation by GPR4” value on Human GPR4 [6] (transiently transfected HEK293 cells, mean+/-sem, N=6) is reported as 7.55+/−0.02 pH. The “Half-maximal activation of cAMP formation by TDAG8” value at Human TDAG8 [9] is recorded as 7.15+/−0.02 pH. Moreover, at Human TDAG8 [10], the “Half-maximal activation of luciferase induction by human TDAG8” value is on record as 7.28+/−0.02 pH.

As to “thrombin: bovine thrombin, activates endogenous receptors in CCL39 cells”, the “pH modulation of the response to the receptor agonist (IP formation)” value in test [3] (range of pH 7-8) is “not positively modulated”.
